According to US20150050373A1, “HERBAL COMPOSITION FOR THE TREATMENT OF METABOLIC DISORDERS” (PIRAMAL ENTERPRISES LIMITED, priority 2012, published 2015):

What was measured:
[1] = test system: high fat diet (HFD) induced obesity model; assay: High fat diet (HFD)-induced body weight gain study in mice; format: in vivo; details: Mean ± S.E.M.
Procedure: A HFD induced body weight gain study in mice was conducted to evaluate the efficacy of the Extract of Example 1.
Male C57BL/6J mice (in-house; Central Animal Facility, Piramal Healthcare Limited, Goregaon, Mumbai, Maharashtra, India) were acclimatized with HFD (60% Kcal, D12492, Research Diets, USA) for two weeks.
A suspension of Extract of Example 1 was prepared in polyethyleneglycol 400 (30%) (PEG 400, Fisher Scientific, India) and 0.5% carboxy methylcellulose (70%) (CMC, Sigma, USA).
The Extract of Example 1 was administered at a dose of 500 mg/kg body-weight orally, once daily. Orlistat (Biocon, India) was used as the standard drug and was administered orally at a dose of 15 mg/kg body weight, twice daily. A separate group of ten mice was fed a low fat diet (LED, 10% kcal, D12450B, Research Diet, USA) as a normal control. Vehicle was administered to the HFD and LFD control groups at dose of 10 mL/kg body weight.
The treatments were continued for a period of sixty days. Body weight and feed intake were monitored daily. The % change in body weight (% increase in body weight from day 1) and the cumulative feed intake data was calculated. On day sixtyone, blood samples (˜200 μL/mice) were collected in heparinised (50 IU/mL) micro-centrifuge tubes under isoflurane anesthesia. Plasma was separated by centrifugation at 10000 rpm at 4° C. for estimation of various plasma biochemistry parameters. The biochemistry analysis was performed on BS-400 autoanalyzer (Mindray, China). Subsequently, the mice were sacrificed and following organs/tissues were dissected out and weighed viz., liver, heart, kidneys, epididymal fat and retroperitoneal fat. All the data was analyzed for statistical significance by one-way ANOVA followed by Dunnet's post-hoc test and values of P<0.05 were considered as significant. All analyses were carried out using GraphPad Prism version 4.00 for Windows (GraphPad Software, San Diego, Calif., USA).

[2] = target: T1, human DGAT-1 enzyme over expressed in Sf9 cell-line (Homo sapiens, UniProt O75907); assay: hDGAT-1 assay (inhibition of [14C]triglyceride formation by microsomes); format: biochemical
T1 construct: hDGAT-1 ORF expression clone (RZPD0839C09146 in pDEST vector) was obtained from RZPD, Germany; made in house; host or cells: Sf9 insect cells (baculovirus, Bac-to-Bac); microsomal fraction
T1 sequence (O75907 1-488): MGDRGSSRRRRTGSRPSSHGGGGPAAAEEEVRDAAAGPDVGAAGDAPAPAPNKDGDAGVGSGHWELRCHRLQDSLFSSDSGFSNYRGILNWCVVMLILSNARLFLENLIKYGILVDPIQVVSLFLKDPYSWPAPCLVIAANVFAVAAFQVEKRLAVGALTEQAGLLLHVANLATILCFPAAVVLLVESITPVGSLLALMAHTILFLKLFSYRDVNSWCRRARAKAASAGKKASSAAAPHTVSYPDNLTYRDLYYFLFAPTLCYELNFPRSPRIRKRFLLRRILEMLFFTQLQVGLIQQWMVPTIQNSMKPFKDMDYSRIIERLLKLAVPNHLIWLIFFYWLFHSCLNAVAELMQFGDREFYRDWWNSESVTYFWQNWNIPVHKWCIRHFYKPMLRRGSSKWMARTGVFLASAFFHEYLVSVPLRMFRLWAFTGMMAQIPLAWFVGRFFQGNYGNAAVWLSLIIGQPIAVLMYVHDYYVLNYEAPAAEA
Procedure: The DGAT-1 assay was designed using human DGAT-1 enzyme over expressed in Sf9 cell-line as described in the reference, European Journal of Pharmacology, 650, 663-672, (2011), the disclosure of which is incorporated by reference for the teaching of the assay.
hDGAT-1 Enzyme preparation: Enzyme was diluted to a working concentration of 1 mg/mL in hDGAT-1 assay buffer, 2.5 μL of the working enzyme stock was used in hDGAT-1 assay (final concentration 25 μg/mL).
The test samples were prepared as follows. A stock solution of 20 mg/mL was prepared for each extract (Extract of Example 1 to Extract of Example 7) in 100% dimethyl sulfoxide (DMSO). The working stock was prepared in hDGAT-1 assay buffer. […]
Three different concentrations for dose response (i.e. 25 μg/mL, 50 μ/mL and 100 μg/mL) were prepared for Extract of Example 1 by serial dilution of stock solution.
60 μL of substrate mix (as described above) was added to a total assay volume of 100 μL. The reaction was started by adding 2.5 μg hDGAT-1 containing microsomal protein and was incubated at 37° C. for 10 min. The reaction was stopped by adding 300 μL of alkaline ethanol stop solution mix (AESSM). The reaction involves the incorporation of radioactive [^14C] oleoyl-CoA into the third hydroxyl group (OH) of 1,2-dioleoyl-sn-glycerol to form the radioactive triglyceride ([^14C] triglyceride) which was then extracted into the upper heptane phase. The radioactive triglyceride product thus formed was separated into the organic phase by adding 600 μL of n-heptane. 250 μL of the upper heptane was added into 4 mL of scintillation fluid and measured using a liquid scintillation counter (Packard; 1600CA) as disintegration per min (dpm) counts. The percentage inhibition was calculated with respect to the vehicle. […]

[3] = HFD-fed mice after 60 days treatment, Extract 500 mg/kg once daily, Orlistat 15 mg/kg twice daily, oral
[4] = HFD-fed mice, Day 60, Extract 500 mg/kg orally once daily, Orlistat 15 mg/kg orally twice daily

Compound	Body Weight (g) (Day 0) ([1]; HFD-fed male C57BL/6J mice, baseline Day 0)	Epididymal Fat [1, 3] [g]	Retroperitoneal Fat [1, 3] [g]	% Change in body weight ([1]; HFD-fed mice, % increase in body weight from day 1, 60 days, Extract 500 mg/kg orally once daily, Orlistat 15 mg/kg orally twice daily) [%]	Body Weight (g) (Day 60) [1, 4]	Cumulative Feed intake (g/mice) (Day 60) [1, 4]	Total Fat ([1]; Total fat = Epididymal fat + Retroperitoneal fat, HFD-fed mice after 60 days treatment) [g]	% inhibition of hDGAT-1 ([2]; Table 1, 20 nM) [%]	% inhibition of hDGAT-1 ([2]; Table 1, 0.1 μM) [%]	% inhibition of hDGAT-1 ([2]; Table 2, 20 nM) [%]	% inhibition of hDGAT-1 ([2]; Table 2, 0.1 μM) [%]
CCCCCCCCCCC[C@@H](C[C@@H]1OC(=O)[C@H]1CCCCCC)OC(=O)[C@H](CC(C)C)NC=O [Orlistat]	26.4 ± 0.4	1.07 ± 0.10	0.42 ± 0.05	16.74 ± 2.70	30.9 ± 0.9	119.7 ± 4.7	1.49 ± 0.15	–	–	–	–
CC1(C)Oc2ncncc2N=C1c1ccc([C@H]2CC[C@@H](CC(=O)O)CC2)cc1 [IN5530, 2-((1s,4s)-4-(4-(7,7-dimethyl-7H-pyrimido [4,5-b][1,4]oxazin-6-yl)phenyl)cyclohexyl)acetic acid]	–	–	–	–	–	–	–	46.27	66.04	48.82	74.26
